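Exposure lasted 48 hours, with cells grown in 96-well plates and compounds tested at five concentrations. GI50: concentration for 50% inhibition of growth.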 Activity calls are given as the source filed them. Rule as the data show it: active = GI50 up to about 1.1 µM and inactive = higher.
Assays:
Assay in all cases: DTP human tumour cell line panel, 48 h
[1] = test system: KM12
[2] = test system: HT-29
[3] = test system: SF-268
[4] = test system: OVCAR-5
[5] = test system: MDA-N
[6] = test system: HCT-15
[7] = test system: IGROV-1
[8] = test system: OVCAR-4
[9] = test system: SK-MEL-2
[10] = test system: RXF 393
[11] = test system: SNB-75
[12] = test system: SW-620
[13] = test system: HOP-62
[14] = test system: HCC 2998
[15] = test system: T47D
[16] = test system: SNB-19
[17] = test system: OVCAR-8
[18] = test system: OVCAR-3
[19] = test system: NCI-H23
[20] = test system: SK-MEL-28

`Cc1cc(NS(=O)(=O)c2ccc(NC(=O)c3ccc4nc5ccccc5c(Nc5ccc(S(=O)(=O)Nc6cc(C)on6)cc5)c4c3)cc2)no1` was tested, and the GI50 [1] was > 50 µM (inactive), the GI50 [2] was > 50 µM (inactive) and the GI50 [3] was > 50 µM (inactive). The GI50 [4] was > 50 µM (inactive), the GI50 [5] was > 50 µM (inactive) and the GI50 [6] was greater than 50 µM. The GI50 [7] was > 50 µM (inactive), the GI50 [8] was > 50 µM (inactive) and the GI50 [9] was > 50 µM (inactive). For the same compound, the GI50 [10] was > 50 µM (inactive), the GI50 [11] was > 50 µM (inactive) and the GI50 [12] was > 50 µM (inactive). The GI50 [13] was > 50 µM (inactive), the GI50 [14] was > 50 µM (inactive) and the GI50 [15] was > 50 µM (inactive). The GI50 [16] was > 50 µM (inactive), the GI50 [17] was > 50 µM (inactive) and the GI50 [18] was > 50 µM (inactive). The GI50 [19] was > 50 µM (inactive) and the GI50 [20] was > 50 µM (inactive).

With `O=C1Cc2c([nH]c3ccc([N+](=O)[O-])cc23)-c2ccccc2N1` [ALSTERPAULLONE] the GI50 [1] was 0.165 µM (active), the GI50 [2] was 0.389 µM (active) and the GI50 [3] was 0.471 µM (active). The GI50 [4] was 0.22 µM (active), the GI50 [5] was 0.367 µM (active) and the GI50 [6] was 0.237 µM. For the same compound, the GI50 [7] was 0.53 µM (active), the GI50 [8] was 0.498 µM (active) and the GI50 [9] was 0.713 µM (active). For the same compound, the GI50 [10] was 0.284 µM (active), the GI50 [11] was 0.804 µM (active) and the GI50 [12] was 0.348 µM (active). The GI50 [13] was 0.279 µM (active), the GI50 [14] was 0.914 µM (active) and the GI50 [15] was 2.88 µM (inactive). The GI50 [16] was 0.478 µM (active), the GI50 [17] was 0.446 µM (active) and the GI50 [18] was 0.158 µM (active). For the same compound, the GI50 [19] was 0.557 µM (active) and the GI50 [20] was 0.345 µM (active).

In the case of `C/C=C\C1OC1(C)c1cc(=O)c2c(C)cc3c(c2o1)C(=O)c1c(O)c(C2CC(C)(N(C)C)C(OC(C)=O)C(C)O2)cc(C2CC(N(C)C)C(O)C(C)O2)c1C3=O` (stereo not given), the GI50 [1] is reported as 0.0042 µM (active), the GI50 [2] is reported as < 0.00375 µM (active) and the GI50 [3] is reported as 0.00516 µM (active). For the same compound, the GI50 [4] was 0.00546 µM (active), the GI50 [5] was 0.0043 µM (active) and the GI50 [6] was 0.00404 µM. The GI50 [7] was 0.00569 µM (active), the GI50 [8] was 0.00461 µM (active) and the GI50 [9] was 0.00463 µM (active). For the same compound, the GI50 [10] was < 0.00375 µM (active), the GI50 [11] was < 0.00375 µM (active) and the GI50 [12] was < 0.00375 µM (active). The GI50 [13] was < 0.00375 µM (active), the GI50 [14] was < 0.00375 µM (active) and the GI50 [15] was 0.00386 µM (active). The GI50 [16] was 0.00621 µM (active), the GI50 [17] was < 0.00375 µM (active) and the GI50 [18] was 0.00451 µM (active). For the same compound, the GI50 [19] was < 0.00375 µM (active) and the GI50 [20] was 0.0152 µM (active).

`O=C1CSC2(CC(/C=C/c3cccc(Br)c3)=NN2c2cccc(S(=O)(=O)O)c2)N1c1nc2ccccc2s1` (stereo not given) was tested, and the GI50 [1] was > 90.8 µM (inactive), the GI50 [2] was > 100 µM (inactive) and the GI50 [3] was > 100 µM (inactive). The GI50 [4] was > 100 µM (inactive), the GI50 [5] was > 100 µM (inactive) and the GI50 [6] was greater than 100 µM. For the same compound, the GI50 [7] was 58.6 µM (inactive), the GI50 [8] was > 77.8 µM (inactive) and the GI50 [9] was > 100 µM (inactive). The GI50 [10] was > 100 µM (inactive), the GI50 [11] was > 100 µM (inactive) and the GI50 [12] was > 100 µM (inactive). The GI50 [13] was > 100 µM (inactive), the GI50 [14] was > 100 µM (inactive) and the GI50 [15] was 38.5 µM (inactive). The GI50 [16] was > 100 µM (inactive), the GI50 [17] was > 79.8 µM (inactive) and the GI50 [18] was > 100 µM (inactive). The GI50 [19] was > 100 µM (inactive) and the GI50 [20] was > 100 µM (inactive).

With `Clc1ccc(OCc2nnc(CCCCCCCCc3nnc(COc4ccc(Cl)cc4)n3Nc3ccccc3)n2Nc2ccccc2)cc1` the GI50 [1] was 11.2 µM (inactive), the GI50 [2] was 5.24 µM (inactive) and the GI50 [3] was 12.8 µM (inactive). The GI50 [4] was 2.74 µM (inactive), the GI50 [5] was 1.6 µM (inactive) and the GI50 [6] was 4.06 µM. The GI50 [7] was 7.23 µM (inactive), the GI50 [8] was 15.7 µM (inactive) and the GI50 [9] was 16.1 µM (inactive). For the same compound, the GI50 [10] was 21.8 µM (inactive), the GI50 [11] was 52.4 µM (inactive) and the GI50 [12] was 16.9 µM (inactive). For the same compound, the GI50 [13] was 1.08 µM (active), the GI50 [14] was 12.2 µM (inactive) and the GI50 [15] was 22.1 µM (inactive). The GI50 [16] was 12.9 µM (inactive), the GI50 [17] was 30.4 µM (inactive) and the GI50 [18] was 14.2 µM (inactive). For the same compound, the GI50 [19] was 18.2 µM (inactive) and the GI50 [20] was 4.62 µM (inactive).

With `O=C1C=CC(=O)C(CNc2ccc(C(=O)OC34CC5CC(CC(C5)C3)C4)cc2)=C1` the GI50 [1] was 5.94 µM (inactive), the GI50 [2] was 9.44 µM (inactive) and the GI50 [3] was 11.9 µM (inactive). The GI50 [4] was 15.1 µM (inactive), the GI50 [5] was 4.73 µM (inactive) and the GI50 [6] was 2.44 µM. For the same compound, the GI50 [7] was 1.54 µM (inactive), the GI50 [8] was 3.01 µM (inactive) and the GI50 [9] was 15.1 µM (inactive). For the same compound, the GI50 [10] was 1.71 µM (inactive), the GI50 [11] was 3.39 µM (inactive) and the GI50 [12] was 10.5 µM (inactive). For the same compound, the GI50 [13] was 11.4 µM (inactive), the GI50 [14] was 15 µM (inactive) and the GI50 [15] was 2.49 µM (inactive). For the same compound, the GI50 [16] was 12.8 µM (inactive), the GI50 [17] was 5.11 µM (inactive) and the GI50 [18] was 3.06 µM (inactive). For the same compound, the GI50 [19] was 6.67 µM (inactive) and the GI50 [20] was 4.69 µM (inactive).

`CC(C)[Si](OC/C(=C/COC(C)(C)C)[C@H]1CC=C(C(=O)c2ccccc2N2CN(C)C(=O)N(C)C2)C1)(C(C)C)C(C)C` was tested, and the GI50 [1] was 13.7 µM (inactive), the GI50 [2] was 5.75 µM (inactive) and the GI50 [3] was 6.58 µM (inactive). The GI50 [4] was 14.2 µM (inactive), the GI50 [5] was 2.18 µM (inactive) and the GI50 [6] was 12.3 µM. For the same compound, the GI50 [7] was 12.1 µM (inactive), the GI50 [8] was 13.8 µM (inactive) and the GI50 [9] was 13.6 µM (inactive). For the same compound, the GI50 [10] was 4.02 µM (inactive), the GI50 [11] was 14.1 µM (inactive) and the GI50 [12] was 3.17 µM (inactive). For the same compound, the GI50 [13] was 16 µM (inactive), the GI50 [14] was 12.4 µM (inactive) and the GI50 [15] was 7.73 µM (inactive). For the same compound, the GI50 [16] was 12.1 µM (inactive), the GI50 [17] was 5.55 µM (inactive) and the GI50 [18] was 9.93 µM (inactive). For the same compound, the GI50 [19] was 15.2 µM (inactive) and the GI50 [20] was 6.22 µM (inactive).

From ChEMBL document CHEMBL1201862, “PubChem BioAssay data set” (2004)
